Assay results taken from US9024038B2 (Purdue Research Foundation, priority 2010, dated 2015).
Like-named read-outs stand apart in the source and are kept apart here.

Legend:
HIV-1LAI = assay: Antiviral assay in MT-2 human T-lymphoid cells exposed to HIV-1LAI, MTT readout; format: cell-based
HIV-1 protease = HIV-1 protease (Human immunodeficiency virus type 1 group M subtype B, UniProt P04585); assay: HIV-1 protease enzyme inhibitory assay (protocol of Toth and Marshall); format: biochemical; details: for fold change in Ki compared to inhibitor 35a: loss of enzyme inhibitory potency vs 35a
HIV-1MRD/C (X4) = assay: Antiviral activity in PHA-PBMs, p24 Gag, multidrug resistant clinical isolate; format: cell-based
Source text: (§1) Inhibitor 35a was examined for its activity against a panel of multidrug-resistant HIV-1 variants and compared it with that of other clinically available PIs including 1a. […] This inhibitor outperformed the clinically available PIs with high antiviral activity and seems to compare well with 1a, which currently stands as the leading PI for the treatment of drug-resistant HIV infection.

HIV-1MDR/TM (X4) = assay: as above; format: cell-based
Source text: as §1

HIV-1MDR/JSL (R5) = assay: as above; format: cell-based; details: for EC50: PHA-PBMs, p24 Gag
Source text: as §1

HIV-1MDR/MM (R5) = assay: as above; format: cell-based
Source text: as §1

HIV-1MDR/B (X4) = assay: as above; format: cell-based; details: for EC50: PHA-PBMs, p24 Gag
Source text: as §1

HIV-1MDR/G (X4) = assay: as above; format: cell-based
Source text: as §1

HIV-1ERS104pre (X4) = assay: Antiviral activity in PHA-PBMs, inhibition of p24 Gag protein production, wild-type clinical isolate; format: cell-based
Source text: as §1

[1] = Human immunodeficiency virus 1, T-lymphoid, read-out: Antiviral IC50, (nM)
[2] = Human immunodeficiency virus 1, MT2
[3] = Human immunodeficiency virus 1, MT2, MT-2 cells, 100 TCID50s of HIV-1LAI, MTT assay, read-out: IC50
[4] = Human immunodeficiency virus 1, T-lymphoid

Q: Which results are given for COc1ccc(S(=O)(=O)N(CC(C)C)C[C@@H](O)[C@H](Cc2ccccc2)NC(=O)O[C@H]2CCO[C@H]3OC[C@H](OC)[C@H]32)cc1?
A: IC50 (HIV-1LAI; [1]): < 1 nM; Ki (HIV-1 protease): < 0.1 nM

Q: Which IC50 (HIV-1LAI; [1]) does the source give for COc1ccc(S(=O)(=O)N(CC(C)C)C[C@@H](O)[C@H](Cc2ccccc2)NC(=O)O[C@H]2CCO[C@H]3OC[C@H](O)[C@H]32)cc1 here?
A: < 10 nM

Q: What about the Ki (HIV-1 protease) of the same molecule?
A: < 0.1 nM

Q: For COc1ccc(C[C@H](NC(=O)O[C@H]2CCO[C@H]3OC[C@H](O)[C@H]32)[C@H](O)CN(CC(C)C)S(=O)(=O)c2ccc(OC)cc2)cc1, which IC50 (HIV-1LAI; [1]) is on record?
A: < 10 nM

Q: And the Ki (HIV-1 protease)?
A: < 0.1 nM

Q: Which results are given for COc1ccc(S(=O)(=O)N(CC(C)C)C[C@@H](O)[C@H](Cc2ccccc2)NC(=O)O[C@H]2CCO[C@H]3OC[C@H](OCc4ccccc4)[C@H]32)cc1?
A: IC50 (HIV-1LAI; [1]): < 1 nM; Ki (HIV-1 protease): < 1 nM

Q: Which IC50 (HIV-1LAI; [1]) does the source give for CC(C)CN(C[C@@H](O)[C@H](Cc1ccccc1)NC(=O)O[C@H]1CCO[C@H]2OCC[C@H]21)S(=O)(=O)c1ccc2nc(NC(C)C)sc2c1 here?
A: < 1 nM

Q: And the Ki (HIV-1 protease)?
A: < 0.1 nM

Q: Which IC50 (HIV-1LAI; [1]) does the source give for CC(C)CN(C[C@@H](O)[C@H](Cc1ccccc1)NC(=O)O[C@H]1CCO[C@H]2OCC(O)C21)S(=O)(=O)c1ccc2nc(NC(C)C)sc2c1 (stereo partly drawn) here?
A: < 10 nM

Q: What about the Ki (HIV-1 protease) of the same molecule?
A: < 0.1 nM

Q: For CCNC1CO[C@@H]2OCC[C@H](OC(=O)N[C@@H](Cc3ccccc3)[C@H](O)CN(CC(C)C)S(=O)(=O)c3ccc4nc(NC(C)C)sc4c3)C12 (stereo partly drawn), which IC50 (HIV-1LAI; [1]) is on record?
A: < 10 nM

Q: And the Ki (HIV-1 protease)?
A: < 0.1 nM

Q: How did the IC50 (HIV-1LAI; Human immunodeficiency virus 1, T-lymphoid, Examples Table 3, scored, read-out: Antiviral IC50) turn out when CC(C)CN(C[C@@H](O)[C@H](Cc1ccccc1)NC(=O)O[C@H]1CCO[C@H]2OCC[C@H]21)S(=O)(=O)c1ccc2nc(NC(C)C)oc2c1 was run?
A: < 10 nM

Q: Which IC50 (HIV-1LAI; [1]) does the source give for COc1ccc(C[C@H](NC(=O)O[C@H]2CCO[C@H]3OCC[C@H]32)[C@H](O)CN(CC(C)C)S(=O)(=O)c2ccc3nc(NC(C)C)oc3c2)cc1 here?
A: < 10 nM

Q: And the Ki (HIV-1 protease)?
A: < 0.1 nM

Q: For COc1cccc(C[C@H](NC(=O)O[C@H]2CCO[C@H]3OCC[C@H]32)[C@H](O)CN(CC(C)C)S(=O)(=O)c2ccc3nc(NC(C)C)oc3c2)c1, which IC50 (HIV-1LAI; [1]) is on record?
A: < 10 nM

Q: And the Ki (HIV-1 protease)?
A: < 0.1 nM

Q: Which results are given for COc1cccc(C[C@H](NC(=O)O[C@H]2CCO[C@H]3OCC[C@H]32)[C@H](O)CN(CC(C)C)S(=O)(=O)c2ccc3nc(NC(C)C)sc3c2)c1?
A: IC50 (HIV-1LAI; [1]): < 1 nM; Ki (HIV-1 protease): < 0.1 nM

Q: Which IC50 (HIV-1LAI; [2]) does the source give for COc1ccc(S(=O)(=O)N(CC(C)C)C[C@@H](O)[C@H](Cc2ccccc2)NC(=O)O[C@@H]2CCO[C@@H]3OCC[C@@H]32)cc1 [35b, (3aR,4R,7aS)-Hexahydro-2H-furo[2,3-b]pyran-4-yl((2S,3R)-3-hydroxy-4-(N-isobutyl-4-methoxyphenylsulfonamido)-1-phenylbutan-2-yl)carbamate] here?
A: 19 nM

Q: What about the IC50 (HIV-1LAI; Human immunodeficiency virus 1, MT2, read-out: antiviral activity ID50) of the same molecule?
A: 19 nM

Q: And the “fold change in Ki compared to inhibitor 35a” value (HIV-1 protease)?
A: > 20 fold

Q: And the Ki (HIV-1 protease; read-out: Ki)?
A: 0.068 nM

Q: COc1ccc(S(=O)(=O)N(CC(C)C)C[C@@H](O)[C@H](Cc2ccccc2)NC(=O)O[C@H]2CCC[C@H]3OCC[C@@H]23)cc1 [35c, (3aR,4S,7aR)-Octahydrobenzofuran-4-yl(2S,3R)-3-hydroxy-4-(N-isobutyl-4-methoxyphenylsulfonamido)-1-phenylbutan-2-yl carbamate] was tested. Which IC50 (HIV-1LAI; [3]) did it give?
A: 8 nM

Q: What about the “fold decrease in antiviral activity compared to inhibitor 35a” value (HIV-1LAI; MT-2 cells, HIV-1LAI) of the same molecule?
A: 16 fold

Q: And the “fold change in Ki compared to inhibitor 35a” value (HIV-1 protease)?
A: 2 fold

Q: And the Ki (HIV-1 protease; read-out: Ki)?
A: 0.005 nM

Q: Which Ki (HIV-1 protease; read-out: Ki) does the source give for COc1ccc(S(=O)(=O)N(CC(C)C)C[C@@H](O)[C@H](Cc2ccccc2)NC(=O)O[C@H]2CCO[C@H]3CCC[C@H]32)cc1 [35d, (4S,4aR,7aS)-Octahydrocyclopenta[b]pyran-4-yl((2S,3R)-3-hydroxy-4-(N-isobutyl-4-methoxyphenylsulfonamido)-1-phenylbutan-2-yl)carbamate] here?
A: 1.43 nM

Q: COc1ccc(S(=O)(=O)N(CC(C)C)C[C@@H](O)[C@H](Cc2ccccc2)NC(=O)O[C@H]2CCC[C@H]3CCC[C@H]32)cc1 [35e] was tested. Which IC50 (HIV-1LAI; [2]) did it give?
A: > 1000 nM

Q: And the “antiviral activity” value (HIV-1LAI; MT-2 cells, HIV-1LAI)?
A: no appreciable antiviral activity

Q: What about the Ki (HIV-1 protease; read-out: Ki) of the same molecule?
A: 9 nM

Q: COc1ccc(S(=O)(=O)N(CC(C)C)C[C@@H](O)[C@H](Cc2ccccc2)NC(=O)O[C@H]2CCO[C@H]3COC[C@H]32)cc1 [35f, (4S,4aS,7aR)-Hexahydro-2H-furo[3,4-b]pyran-4-yl((2S,3R)-3-hydroxy-4-(N-isobutyl-4-methoxyphenylsulfonamido)-1-phenylbutan-2-yl)carbamate] was tested. Which IC50 (HIV-1LAI; [2]) did it give?
A: > 1000 nM

Q: What about the “antiviral activity” value (HIV-1LAI; MT-2 cells, HIV-1LAI) of the same molecule?
A: no antiviral activity

Q: What about the “protease inhibitory activity” value (HIV-1 protease) of the same molecule?
A: substantial loss of potency

Q: And the Ki (HIV-1 protease; read-out: Ki)?
A: 5.3 nM

Q: Which “protease inhibitory activity” value (HIV-1 protease) does the source give for COc1ccc(S(=O)(=O)N(CC(C)C)C[C@@H](O)[C@H](Cc2ccccc2)NC(=O)O[C@H]2CO[C@H]3OCC[C@H]3C2)cc1 [35g, (3aS,5R,7aR)-Hexahydro-2H-furo[2,3-b]pyran-5-yl((2S,3R)-3-hydroxy-4-(N-isobutyl-4-methoxyphenylsulfonamido)-1-phenylbutan-2-yl)carbamate] here?
A: substantial loss of protease inhibitory activity

Q: What about the Ki (HIV-1 protease; read-out: Ki) of the same molecule?
A: 0.11 nM

Q: How did the EC50 (HIV-1MRD/C (X4); PHA-PBMs, p24 Gag) turn out when COC(=O)N[C@H](C(=O)N[C@@H](Cc1ccccc1)[C@@H](O)CN(Cc1ccc(-c2ccccn2)cc1)NC(=O)[C@@H](NC(=O)OC)C(C)(C)C)C(C)(C)C [ATV] was run?
A: 39 ± 3 nM

Q: And the “fold change of EC50 compared to wild-type HIV-1ERS104pre” value (“fold change of EC50” for short) (HIV-1MRD/C (X4); number in parentheses)?
A: 14 fold

Q: And the EC50 (HIV-1MDR/TM (X4); PHA-PBMs, p24 Gag)?
A: 75 ± 3 nM

Q: And the “fold change of EC50” value (HIV-1MDR/TM (X4); number in parentheses)?
A: 28 fold

Q: What about the EC50 (HIV-1MDR/JSL (R5)) of the same molecule?
A: 293 ± 99 nM

Q: What about the “fold change of EC50” value (HIV-1MDR/JSL (R5); number in parentheses) of the same molecule?
A: 109 fold

Q: And the EC50 (HIV-1MDR/MM (R5); PHA-PBMs, p24 Gag)?
A: 205 ± 24 nM

Q: And the “fold change of EC50” value (HIV-1MDR/MM (R5); number in parentheses)?
A: 76 fold

Q: And the EC50 (HIV-1MDR/B (X4))?
A: 470 ± 7 nM

Q: What about the “fold change of EC50” value (HIV-1MDR/B (X4); number in parentheses) of the same molecule?
A: 174 fold

Q: And the EC50 (HIV-1MDR/G (X4); PHA-PBMs, p24 Gag)?
A: 19 ± 8 nM

Q: What about the “fold change of EC50” value (HIV-1MDR/G (X4); number in parentheses) of the same molecule?
A: 7 fold

Q: What about the EC50 (HIV-1ERS104pre (X4)) of the same molecule?
A: 2.7 ± 0.6 nM

Q: For Cc1cccc(C)c1OCC(=O)N[C@@H](Cc1ccccc1)[C@@H](O)C[C@H](Cc1ccccc1)NC(=O)[C@H](C(C)C)N1CCCNC1=O [LPV], which EC50 (HIV-1MDR/JSL (R5)) is on record?
A: > 1000 nM

Q: And the EC50 (HIV-1MDR/B (X4))?
A: > 1000 nM

Q: With CC(C)CN(C[C@@H](O)[C@H](Cc1ccccc1)NC(=O)O[C@H]1CCOC1)S(=O)(=O)c1ccc(N)cc1 [amprenavir, reference compound] as the molecule, how does the IC50 (HIV-1LAI; [3]) read?
A: 30 nM

Q: Which results are given for COc1ccc(C[C@H](NC(=O)O[C@H]2CCO[C@H]3OCC[C@H]32)[C@H](O)CN(CC(C)C)S(=O)(=O)c2ccc(N)cc2)cc1 [compound 1]?
A: IC50 (HIV-1LAI; [4]): 1 to 10 nM; Ki (HIV-1 protease): < 1 nM

Q: With COc1ccc(C[C@H](NC(=O)O[C@H]2CCO[C@H]3OCC[C@H]32)[C@H](O)CN(CC(C)C)S(=O)(=O)c2ccc(OC)cc2)cc1 [compound 2] as the molecule, how does the IC50 (HIV-1LAI; [4]) read?
A: < 1 nM

Q: And the Ki (HIV-1 protease)?
A: < 0.1 nM

Q: With COc1ccc(C[C@H](NC(=O)O[C@H]2CCO[C@H]3OCC[C@H]32)[C@H](O)CN(C[C@H]2CCC(=O)N2)S(=O)(=O)c2ccc(OC)cc2)cc1 [compound 3] as the molecule, how does the IC50 (HIV-1LAI; [4]) read?
A: 100 to 1000 nM

Q: What about the Ki (HIV-1 protease) of the same molecule?
A: < 0.1 nM

Q: With COc1ccc(C[C@H](NC(=O)O[C@H]2CCO[C@H]3OCC[C@H]32)[C@H](O)CN(C[C@H]2CCC(=O)N2)S(=O)(=O)c2ccc(N)cc2)cc1 [compound 4] as the molecule, how does the IC50 (HIV-1LAI; [4]) read?
A: > 1000 nM

Q: What about the Ki (HIV-1 protease) of the same molecule?
A: < 10 nM

Q: What does the source list for CC(C)CN(C[C@@H](O)[C@H](Cc1ccccc1)NC(=O)O[C@H]1CCO[C@H]2OCC[C@H]21)S(=O)(=O)c1ccc(N)cc1 [compound 36]?
A: IC50 (HIV-1LAI; [2]): 6.5 nM; Ki (HIV-1 protease; read-out: Ki): 0.01 nM

Q: What does the source list for CC(C)CN(C[C@@H](O)[C@H](Cc1ccccc1)NC(=O)O[C@H]1CCO[C@H]2OCC[C@H]21)S(=O)(=O)c1ccc(CO)cc1 [compound 37]?
A: IC50 (HIV-1LAI; [2]): 4.5 nM; Ki (HIV-1 protease; read-out: Ki): 0.085 nM

Q: CC(C)CN(C[C@@H](O)[C@H](Cc1ccccc1)NC(=O)O[C@H]1CO[C@H]2OCC[C@H]21)S(=O)(=O)c1ccc(N)cc1 [drawing 189] was tested. Which IC50 (HIV-1LAI; [1]) did it give?
A: < 10 nM

Q: With CC(C)(C)NC(=O)[C@@H]1C[C@@H]2CCCC[C@@H]2CN1C[C@@H](O)[C@H](Cc1ccccc1)NC(=O)[C@H](CC(N)=O)NC(=O)c1ccc2ccccc2n1 [saquinavir, reference compound] as the molecule, how does the IC50 (HIV-1LAI; [2]) read?
A: 15 nM
